These results are taken from patent publication US11795460B2, “Compositions and methods for TTR gene editing and treating ATTR amyloidosis” (Intellia Therapeutics, Inc., priority 2017, dated 2023).

In series [1] the test system is TTR. Put plainly: TTR editing in primary human hepatocytes electroporated with Spy Cas9 protein loaded with dgRNAs (Table 7). To be noted: dgRNA electroporated with Spy Cas9 protein (RNP). Type of series: cell-based. In a few lines: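 Editing efficiency is the fraction of NGS reads carrying insertions, deletions or substitutions at the TTR target, measured on MiSeq amplicons from DNA harvested 24, 48 or 72 h post-delivery. Cas9–dgRNA ribonucleoprotein was nucleofected (P3 buffer, EX-147) into primary human or cyno hepatocytes.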

Series [2] deals with TTR. Put plainly: TTR editing in primary human hepatocytes transfected with Spy Cas9 protein (RNP) loaded with dgRNAs (Table 8). To be noted: dgRNA transfected with Spy Cas9 protein (RNP). Type of series: cell-based. The essentials: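 Primary human hepatocytes were lipofected (RNAiMAX) with RNP of Spy Cas9 (10 nM) plus pre-annealed crRNA (10 nM) and trRNA (10 nM) and harvested 24, 48 or 72 h later. Target-site amplicons were sequenced on Illumina MiSeq and aligned to hg38; percent editing = reads with indels or substitutions over total reads.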

Series [3] relates to TTR. The series can be described thus: TTR editing in HepG2 cells transfected with Spy Cas9 mRNA and dgRNAs (Table 6). Format: cell-based, human. To be noted: HepG2 cells co-transfected with Spy Cas9 mRNA (SEQ ID NO:2) and dgRNAs. The essentials: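 Percent editing is the share of sequencing reads at the TTR target locus that carry insertions, deletions or substitutions, measured by Illumina amplicon sequencing aligned to hg38. Samples came from HepG2 cells lipofected first with 100 ng Cas9 mRNA and then with dual-guide RNA (25 nM crRNA/tracer), collected 24–72 h later.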

The subject of series [4] is TTR. Put plainly: TTR editing in HEK293_Cas9 cells transfected with dgRNAs (Table 4). Type of series: cell-based, human. To be noted: HEK293_Cas9 cells (constitutively express Spy Cas9) transfected with dgRNAs. The essentials:
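Percent editing, taken from amplicon NGS as the fraction of all reads carrying insertions, deletions or substitutions, was measured 24, 48 or 72 h after delivery. Delivery used RNAiMAX lipoplexes of 25 nM each crRNA and trRNA into HEK293 cells stably expressing Spy Cas9.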

For “GCAUGGGCUCACAACUGAGG (tested as dual guide RNA, chemistry not given here) [CR003362]”, the “Avg % Deletion” value in the series with TTR [1] was found to be 0.20%; in the series with TTR [2], 0.56%; in the series with TTR [3] it was 0.94%; in the series with TTR [4] it was 8.41%. Further, the “Avg % Edit” value in the series on TTR [1] was 7.03%; with TTR [2], 11.65%; in the series with TTR [3], 17.44%; in the series on TTR [4], 9.90%. The “Avg % Insert” value in the series on TTR [1] amounted to 6.87%; with TTR [2] it was 11.10%; with TTR [3] it was 16.50%; with TTR [4], 1.48%.
With “GCCGUGGUGGAAUAGGAGUA (tested as dual guide RNA, chemistry not given here) [CR003387]”, the “Avg % Deletion” value in the series on TTR [1] is listed as 0.20%; with TTR [2] it was 0.11%; in the series with TTR [3] it was 0.12%; in the series with TTR [4] it was 16.92%. The “Avg % Edit” value came to 1.87% in the series with TTR [1], 1.79% with TTR [2], 1.39% with TTR [3] and 24.68% in the series with TTR [4]. In addition, the “Avg % Insert” value with TTR [1] worked out at 1.70%; with TTR [2] it was 1.68%; in the series on TTR [3], 1.27%; in the series with TTR [4], 7.75%.
As for “GCGGCAAUGGUGUAGCGGCG (tested as dual guide RNA, chemistry not given here) [CR003377]”, the “Avg % Deletion” value in the series on TTR [1] is 0.10%; in the series with TTR [2] it was 0.31%; in the series on TTR [3], 1.02%; with TTR [4] it was 21.99%. Also, the “Avg % Edit” value in the series with TTR [1] came out at 10.23%; in the series on TTR [2] it was 12.77%; with TTR [3], 16.30%; with TTR [4], 24.70%. For the same sequence, the “Avg % Insert” value was 10.13% with TTR [1], 12.45% in the series with TTR [2], 15.29% in the series with TTR [3] and 2.71% in the series on TTR [4].
“GCUGCAUGGGCUCACAACUG (tested as dual guide RNA, chemistry not given here) [CR003361]”: the “Avg % Deletion” value is reported as 0.37% in the series on TTR [1], 0.56% in the series on TTR [2], 2.58% in the series on TTR [3] and 25.78% in the series on TTR [4]. Further, the “Avg % Edit” value came to 4.10% with TTR [1], 13.08% with TTR [2], 14.05% in the series on TTR [3] and 34.45% in the series on TTR [4]. The “Avg % Insert” value with TTR [1] is given as 3.73%; with TTR [2] it was 12.52%; in the series with TTR [3] it was 11.47%; in the series on TTR [4], 8.66%.
For “GGAGUAGGGGCUCAGCAGGG (tested as dual guide RNA, chemistry not given here) [CR003382]”, the “Avg % Deletion” value in the series with TTR [1] is reported as 0.43%; in the series with TTR [2], 0.15%; with TTR [3], 0.15%; in the series on TTR [4], 25.49%. Further, the “Avg % Edit” value is 8.40% with TTR [1], 2.44% in the series with TTR [2], 1.73% with TTR [3] and 29.95% in the series on TTR [4]. Further, the “Avg % Insert” value with TTR [1] worked out at 8.10%; in the series with TTR [2] it was 2.28%; in the series on TTR [3], 1.58%; with TTR [4] it was 4.46%.
“GGCUGUCGUCACCAAUCCCA (tested as dual guide RNA, chemistry not given here) [CR003391]”: the “Avg % Deletion” value amounted to 0.27% in the series with TTR [1], 0.26% in the series with TTR [2], 0.50% with TTR [3] and 44.19% with TTR [4]. For the same sequence, the “Avg % Edit” value with TTR [1] worked out at 29.77%; in the series with TTR [2], 34.72%; in the series with TTR [3], 48.78%; in the series with TTR [4], 44.81%. Also, the “Avg % Insert” value with TTR [1] came to 29.57%; in the series with TTR [2], 34.46%; in the series with TTR [3] it was 48.28%; with TTR [4], 0.61%.
